How the values were obtained:
Type in all cases: cell-based
[1] = system: E. coli U-16329; assay: Antibiotic MIC / chemo-sensitization checkerboard with OAK, E. coli U-16329; details: for MIC: Escherichia coli, U16329, OAK: None; for FIC: antibiotic combined with C12K-7α8
Description: (§1) Bacteria were grown overnight in LB growth medium and diluted 10,000-fold in same medium.
(§2) Inhibition of proliferation was determined by optical density measurements (620 nm) after incubation overnight at 37° C.
(§3) Synergistic effect of the combinations was assessed by determination of the fractional inhibitory concentration (FIC) where FIC=(MIC OAK in combination with antibiotic)/(MIC OAK alone)+(MIC antibiotic in combination)/(MIC antibiotic alone). Synergy was determined for FIC 0.5.

[2] = system: E. coli U-16327; assay: Antibiotic MIC / chemo-sensitization checkerboard with OAK, E. coli U-16327; details: for MIC: Escherichia coli, U16327, OAK: None; for FIC: antibiotic combined with C12K-7α8
Description: as §1, §2, §3

[3] = system: E. coli AG100A, ΔacrAB (efflux−); details: sub-MIC C12K-7α8
Description: as §1, §3

[4] = system: E. coli AB301, wild type (efflux+); assay: FIC index with sub-MIC OAK, E. coli AB301; details: sub-MIC C12K-7α8
Description: as §1, §3

[5] = system: E. coli N281, ribosomal mutation; assay: FIC index with sub-MIC OAK, E. coli N281; details: sub-MIC C12K-7α8
Description: as §1, §3

[6] = system: E. coli AG100, wild type (efflux+); details: sub-MIC C12K-7α8
Description: as §1, §3

[7] = system: E. coli 14384; assay: Antibiotic MIC / chemo-sensitization checkerboard with OAK, E. coli 14384; details: for FIC: antibiotic combined with C12K-7α8; for MIC: Escherichia coli
Description: as §1, §2, §3

[8] = system: E. coli 14182; assay: Antibiotic MIC / chemo-sensitization checkerboard with OAK, E. coli 14182; details: for FIC: antibiotic combined with C12K-7α8; for MIC: Escherichia coli, OAK: None
Description: as §1, §2, §3

Row | Compound | MIC [1] [µg/mL] | MIC [2] [µg/mL] | FIC [3] | Antibiotic MIC in presence of OAK ([1]; +3.5 μg/ml C12K-7α8 (½ MIC)) [µg/mL] | Antibiotic MIC in presence of OAK ([1]; +[…] C12K-7α8 (⅓ MIC)) [µg/mL] | FIC [1] | Antibiotic MIC in presence of OAK ([2]; +3.5 μg/ml C12K-7α8 (½ MIC)) [µg/mL] | Antibiotic MIC in presence of OAK ([2]; +[…] C12K-7α8 (⅓ MIC)) [µg/mL] | FIC [2] | FIC [6] | Antibiotic MIC in presence of OAK ([7]; +1.7 μg/ml C12K-7α8 (¼ MIC)) [µg/mL] | Antibiotic MIC in presence of OAK ([7]; +3.5 μg/ml C12K-7α8 (½ MIC)) [µg/mL] | Antibiotic MIC in presence of OAK ([7]; +[…] C12K-7α8 (⅓ MIC)) [µg/mL] | FIC [7] | Antibiotic MIC in presence of OAK ([8]; +1.7 μg/ml C12K-7α8 (¼ MIC)) [µg/mL] | Antibiotic MIC in presence of OAK ([8]; +3.5 μg/ml C12K-7α8 (½ MIC)) [µg/mL] | Antibiotic MIC in presence of OAK ([8]; +[…] C12K-7α8 (⅓ MIC)) [µg/mL] | FIC [8] | Antibiotic MIC in presence of OAK ([1]; +1.7 μg/ml C12K-7α8 (¼ MIC)) [µg/mL] | Antibiotic MIC in presence of OAK ([2]; +1.7 μg/ml C12K-7α8 (¼ MIC)) [µg/mL] | further results
1 | CC[C@H]1OC(=O)[C@H](C)[C@@H](O[C@H]2C[C@@](C)(OC)[C@@H](O)[C@H](C)O2)[C@H](C)[C@@H](O[C@@H]2O[C@H](C)C[C@H](N(C)C)[C@H]2O)[C@](C)(OC)C[C@@H](C)C(=O)[C@H](C)[C@@H](O)[C@]1(C)O [Clarithromycin, clarithromycin] | 128 | 128 | 0.75 | – | – | – | – | – | – | – | – | – | – | – | – | – | – | – | – | – | FIC [4]: 0.56; FIC [5]: 1.0
2 | CC[C@H]1OC(=O)[C@H](C)[C@@H](O[C@H]2C[C@@](C)(OC)[C@@H](O)[C@H](C)O2)[C@H](C)[C@@H](O[C@@H]2O[C@H](C)C[C@H](N(C)C)[C@H]2O)[C@](C)(O)C[C@@H](C)C(=O)[C@H](C)[C@@H](O)[C@]1(C)O [Erythromycin, erythromycin] | 256 | 512 | 0.86 | 16 | 64 | 0.56 | 16 | 64 | 0.46 | 0.46 | 64 | 8 | 16 | 0.39 | 32 | 4 | 16 | 0.46 | – | – | FIC [4]: 0.56; FIC [5]: 1.0
3 | Cc1onc(-c2ccccc2)c1C(=O)N[C@@H]1C(=O)N2[C@@H]1SC(C)(C)[C@@H]2C(=O)O [Oxacillin, oxacillin] | > 512 | > 512 | 0.75 | 512 | >512 | – | 512 | >512 | – | 0.5 | >512 | >512 | >512 | – | >512 | >512 | >512 | – | >512 | >512 | MIC ([7]; OAK: None): > 512 µg/mL; MIC [8]: > 512 µg/mL
4 | CC1(C)S[C@@H]2[C@H](NC(=O)Cc3ccccc3)C(=O)N2[C@H]1C(=O)O [Penicillin G, penicillin G] | 256 | > 512 | 1.0 | 128 to 256 | 256 | 1 | 512 | >512 | – | 0.58 | >512 | >512 | >512 | – | >512 | >512 | >512 | – | 256 | >512 | MIC ([7]; OAK: None): > 512 µg/mL; MIC [8]: > 512 µg/mL
5 | CCN1CCN(C(=O)N[C@@H](C(=O)N[C@@H]2C(=O)N3[C@@H]2SC(C)(C)[C@@H]3C(=O)O)c2ccccc2)C(=O)C1=O [Piperacillin, piperacillin] | 256 | 256 | – | 64 | 128 | 0.75 | 64 | 128 to 256 | 0.63 | 0.75 | 256 to 512 | 128 | 256 to 512 | 0.63 | >512 | 64 | >512 | 0.63 | 128 to 256 | 256 | MIC ([7]; OAK: None): 256 to 512 µg/mL; MIC [8]: 512 µg/mL
6 | CO[C@H]1/C=C/O[C@@]2(C)Oc3c(C)c(O)c4c(O)c(c(/C=N/N5CCN(C)CC5)c(O)c4c3C2=O)NC(=O)/C(C)=C\C=C\[C@H](C)[C@H](O)[C@@H](C)[C@@H](O)[C@@H](C)[C@H](OC(C)=O)[C@@H]1C [Rifampin, rifampicin] | 16 | 8 to 16 | 0.75 | 1 | 2 | 0.46 | 0.25 | 1 | 0.38 | 0.46 | 1 | 0.03 | 0.06 to 0.13 | 0.31 | 4 | 0.25 | 2 | 0.46 | 4 | 2 | MIC ([7]; OAK: None): 8 µg/mL; MIC [8]: 16 µg/mL
7 | gentamicin [Gentamycin] | – | – | 1.0 | – | – | – | 1 to 2 | 2 | 0.75 | 1.0 | 4 | 2 | 2 to 4 | 1 | – | 64 to 128 | – | 1 | – | 4 | Antibiotic MIC ([2]; OAK: None): 4 µg/mL; Antibiotic MIC ([7]; OAK: None): 4 µg/mL

Reference: patent US8951563B2, “Antibiotic drug delivery and potentiation” (Technion Research & Development Foundation Limited, priority 2009, dated 2015)
